According to patent US6303619A, “Meta-substituted acidic 8-phenylxanthine antagonists of A3 human adenosine receptors” (priority 1998, dated 2001):

Target: T1, human A3 adenosine receptor (Homo sapiens, UniProt P0DMS8)
T1 construct: clone HS-21a contained the complete open reading frame corresponding to the human homolog of the rat A3 adenosine receptor; expressed in transfected cells; host or cells: CHO cells stably transfected with HS-21a cDNA
T1 sequence (P0DMS8 1-318): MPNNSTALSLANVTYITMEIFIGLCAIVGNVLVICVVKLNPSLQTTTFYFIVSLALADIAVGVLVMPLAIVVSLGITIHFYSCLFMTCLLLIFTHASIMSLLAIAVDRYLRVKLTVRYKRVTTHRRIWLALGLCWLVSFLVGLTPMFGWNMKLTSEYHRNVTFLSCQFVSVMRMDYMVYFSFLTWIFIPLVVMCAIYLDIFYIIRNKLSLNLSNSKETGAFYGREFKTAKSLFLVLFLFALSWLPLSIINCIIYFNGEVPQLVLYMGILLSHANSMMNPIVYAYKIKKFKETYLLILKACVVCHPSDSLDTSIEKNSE
Experiment: 125I-ABA binding to membranes of stably transfected CHO cells expressing the human A3 adenosine receptor (HS-21a)
Details: human A3
Protocol: Membranes were prepared from transiently transfected COS7 cells […] after transfection or from G418-selected stably transfected CHO or HEK 293 cells. Cells were harvested in 1 mM EDTA in phosphate buffered saline and centrifuged at 2000×g for 10 minutes. The cell pellet was washed once with phosphate buffered saline. The cell pellet was resuspended in 2 mL of 5 mM Tris, pH 7.6/5mM MgCl2. Membranes were prepared from the cells by freeze-thaw lysis in which the suspension was frozen in a dry ice/ethanol bath and thawed at 25° C. twice. The suspension was homogenized after adding an additional 2 mL of 5 mM Tris, pH 7.6/5 mM MgCl2, in a glass dounce homogenizer with 20 strokes. The membranes were pelleted at 40,000×g at 4° C. for 20 minutes. The membrane pellet was resuspended at a protein concentration of 1-2 mg/mL in binding assay buffer, 50 mM Tris, pH 7.6/10 mM MgCl2. Protein concentration was determined by the method of Bradford ((1976) Anal. Biochem. 72: 248-250). […] Saturation binding of [^125 I]-N^6 -aminiobenizyladenosine (125I-ABA) or [^125 I]-N^6 -2-(4-amino-3-iodophenyl)ethyladenosine (APNEA) was performed on membranes prepared from pSVLA3 transfected COS7 cells. Membranes (100 μg) were incubated in the presence of 0.2 U/mL adenosine deaminase with increasing concentrations of ^125 I-ABA in the range of 0.1-30 nM for 120 minutes at 25° C. in a total volume of 500 μl. The binding assay was terminated by rapid filtration and three washes with ice-cold 50 mM Tris, pH 7.6/10 mM MgCl2 on a Skatron cell harvester equipped with a receptor binding flitermat (SKATRON INSTRUMENTS, INC). Non-specific binding was determined on non-transfected cells. Bound radioactivity was measured by scintillation counting in Ready Safe Scintillation Cocktail (BECKMAN).
The 1.7 kb HS-21a cDNA (A3) was subcloned as a SalI-BamHl fragment into the expression vector pCMV5 (Mumby, S. M., Heukeroth, R. O., Gordon, J. I. and Gilman, A. G. (1990) Proc. Natl. Acad. Sci. USA 87, 728-732.) creating the vector pCMV5-A3. CHO or HEK 293 cells stably expressing the human HS-21 a cDNA were prepared by co-transfection of 15 μg pCMV5-A3 and 1 μg pWLneo (Stratagene) using the calcium phosphate method. Stable cell lines were also generated using EBV based mammalian expression vectors, pREP (INVITROGEN). Neomycin resistant colonies were selected in 1 mg/mL G418 (GIBCO). Stable colonies were screened for expression of HS-21a by ^125 I-ABA binding.
Membranes were prepared from stable CHO cell lines in 10 mM Hepes, pH 7.4 containing 0.1 mM benzamidine and 0.1 mM PMSF as described (Mahan, L. C. et al., (1991) Mol. Pharinacol. 40, 1-7). Pellets were resuspended in 5 mM Hepes, pH 7.4/5 mM MgCl2 /0.1 mM benzarnidine/0.1 mM PMSF at a protein concentration of 1-2 mg/mL and were incubated with adenosine deaminase (Boehringer Mannheim), 2 U/mL at 37° C. for 20 minutes. Saturation binding of ^125 I-ABA was carried out on 50 μg of membranes for 120 minutes at 25° C. in a total volume of 100 μl. The assay was terminated by rapid filtration and three washes with ice-cold binding buffer on a Skatron harvester equipped with a receptor binding filtermat (Skatron Instruments, Inc.). The specific activity of ^125 I-ABA, initially 2,200 Ci/mmol, was reduced to 100 Ci/mmol with nonradioactive I-ABA for saturation analysis. Nonspecific binding was measured in the presence of 1 uM I-ABA. The KD and Bmax values were calculated by the EBDA program (McPherson, G. A. (1983) Computer Programs for Biomedicine 17, 107-114). Competition binding of agonists and antagonists was determined with ^125 I-ABA (0.17-2.0 nM, 2000 Ci/mmol). […] Binding data were analyzed and competition curves were constructed by use of the nonlinear regression curve fitting program Graph PAD InPlot, Version 3.0 (Graph Pad Software, San Diego).

With `CCCn1c(=O)c2[nH]c(-c3cccc(C=CC(=O)O)c3)nc2n(CCC)c1=O` [BW-3911] the “A3 antagonist affinity in words” value was “potent and selective A3 antagonist”.
